The values below come from article PMC9693223 (Molecules, 2022).

Read-outs that look alike come from different tables or passages of the source.

Assay [1] addresses T1, TcrNT2 (Trypanosoma cruzi, UniProt Q4DHG0). The settings on record: cited from earlier work; for Ki: earlier characterization, TcrNT2 expressed in T. brucei, ref Campagnaro et al. [30], read-out: Ki on thymidine transport by TcrNT2.
Assay [2] has as its target T1, TcrNT2. Nature of the assay: Transport of [^3H]-thymidine by TcrNT2 expressed in L. mexicana Cas9^ΔNT1 (Km, inhibition). The format is cell-based. Particulars: for ΔG° (Gibbs free energy of interaction): calculated from Km or Ki at 25 °C; for δ(ΔG°) with respect to ΔG° of thymidine: change in ΔG° relative to thymidine; for Ki: read-out: Ki on the transport of [^3H]-thymidine by TcrNT2. How it is done:
These values can be used to calculate the Gibbs free energy of interaction ΔG°, but these experiments cannot distinguish between the test compound being transported or merely binding to the transporter and inhibiting the transit of the [^3H]-thymidine.
Transport assays were conducted with radiolabeled nucleosides [methyl-^3H]-thymidine (20 Ci/mmol; PerkinElmer (Waltham, MA, USA)) and [2,8-^3H]-adenosine (40 Ci/mmol; American Radiolabeled Chemicals (ARC, St-Louis, MO, USA)). Cells were harvested from mid-log phase cultures by centrifugation and washed into an assay buffer (AB) as described, at a density of 1 × 10^8 cells mL^−1. Transport assays were then performed exactly as described previously, using an oil-stop protocol. Briefly, 100 µL of cell suspension (10^7 cells) was mixed with 100 µL of [^3H]-substrate at 2 × final concentration and incubated for a pre-set time prior to the addition of 800 µL of ice-cold AB containing a saturating concentration of unlabeled permeant (usually 1 or 2.5 mM) and immediate centrifugation through an oil layer to separate cells from extracellular radiolabel. The 100 µL of [^3H]-substrate could also contain unlabeled substrate or an inhibitor at 2 × concentration, as appropriate. Next, the microfuge tubes were flash frozen in liquid nitrogen; the tips with the cell pellets cut off and collected in scintillation tubes. Cells were solubilized by incubation in 2% SDS under gentle shaking on a rocking platform prior to the addition of scintillation fluid (Scintilogic U, Lablogic, Sheffield, UK). The tubes stored in the dark overnight before counting in a 300SL Hidex Scintillation Counter (Lablogic).
Michaelis-Menten constants (Km) were calculated by plotting transport rates of [^3H]-substrate against the concentration, using the Michaelis-Menten equation V0 = Vmax([substrate]/([substrate] + Km)) and non-linear regression in GraphPad Prism 8. Inhibition constants (Ki) were calculated using the Cheng-Prusoff equation: Ki = IC50/(1 + (L/Km)), where L represents the radiolabel concentration. The IC50 was obtained by a non-linear regression of the inhibition curve of transport rate versus inhibitor concentration, using an equation for a sigmoid curve with variable slope (GraphPad Prism 8). The Gibbs free energy ΔG° was obtained using the equation ΔG° = −RTln(Ki), in which R is the gas constant and T is the absolute temperature. As discussed previously, these equations apply to competitive rather than non-competitive inhibition. Given that only close analogues of the substrate were used as potential inhibitors and that Hill slopes were consistently close to −1, it is very likely that inhibition was indeed competitive.

Assay [3] relates to L. mexicana Cas9^ΔNT1 promastigotes. In words: Alamar blue drug sensitivity assay, L. mexicana Cas9^ΔNT1 promastigotes. The format is cell-based, Leishmania mexicana. Particulars: L. mexicana Cas9^ΔNT1 promastigotes, 72 h + 48 h resazurin. The text has this: (§1) We used L. mexicana promastigotes of the Cas9 strain developed by Beneke at al. to generate the ΔNT1 strain, and from there the Cas9^ΔNT1+TcrNT2 (see below); The original Cas9 strain was generously donated by Prof. Eva Gluenz (University of Bern, Switzerland). All strains in standard HOMEM (GIBCO, Life Technologies, Paisley, UK) supplemented with 10% heat-inactivated fetal bovine serum (FBS; PAA Laboratories, Linz, Austria) and 1% of a penicillin–streptomycin solution (10,000 U mL^−1 each; Life Technologies) at 25 °C, as described.
(§2) The Alamar blue assay (resazurin sodium salt) was used to determine the drug sensitivity of the L. mexicana promastigotes in vitro. The assay is based on the reduction of resazurin sodium salt (blue and non-fluorescent) to resorufin (pink color and fluorescent) by live cells. HOMEM medium with 10% FBS (100 μL) was added to all wells of a white 96-well plate apart from the first well. 200 μL of a known concentration of test compounds was diluted in HOMEM medium and placed in the first well. Compounds were tested in one plate and every compound was diluted over two rows (23 concentrations), leaving the last well of every dilution as a negative control having 100 μL HOMEM medium. Next, 100 μL of L. mexicana culture at a density of 2 × 10^6 cells mL^−1 was added into every well in the plate and incubated for 72 h at a temperature of 25 °C after which resazurin sodium salt (Sigma) (20 μL of a solution of 12.5 mg in 100 mL PBS) was added and the plate was incubated under the same conditions for a further 48 h. Fluorescence was measured in a FLUOstar OPTIMA plate reader (BMG Labtech, Germany), at a wavelength of 544 nm for excitation and 620 nm for emission. The EC50 values and fluorescence data were determined and plotted by the GraphPad Prism 8 Software using an equation for a sigmoid curve with variable slope. Pentamidine was used as positive control and every experiment was performed 3–4 times independently.
(Resazurin is reduced to fluorescent resorufin, in cell work by metabolically active cells.)

Assay [4] concerns L. mexicana Cas9 promastigotes. Nature of the assay: Alamar blue drug sensitivity assay, L. mexicana Cas9 promastigotes. The format is cell-based, Leishmania mexicana. Particulars: 72 h + 48 h resazurin, at least 3 independent determinations.
Description: as §1, §2

The test system of assay [5] is L. mexicana Cas9^ΔNT1+TcrNT2 promastigotes. Nature of the assay: Alamar blue drug sensitivity assay, L. mexicana Cas9^ΔNT1+TcrNT2 promastigotes. The settings on record: L. mexicana Cas9^ΔNT1+TcrNT2 promastigotes, 72 h + 48 h resazurin. It counts as cell-based, Leishmania mexicana.
Description: as §1, §2

In assay [6] the test system is T. cruzi epimastigotes (CL Brener strain). In words: In vitro inhibition of proliferation of T. cruzi epimastigotes. The settings on record: cell densities at the 5th day of proliferation, four independent experiments. The format is cell-based, Trypanosoma cruzi. As to the method:
Trypomastigotes were obtained by infecting CHO-K1 cells. CHO-K1 cells were cultivated in RPMI-1640 medium supplemented with 10% heat-inactivated fetal calf serum (FCS), 0.15% (w/v) […], 100 µg mL^−1 penicillin and 130 µg mL^−1 streptomycin and incubated at 37 °C in a humidified atmosphere containing 5% CO2. CHO-K1 cells were initially incubated with metacyclic trypomastigotes obtained by in vitro differentiation of epimastigotes as previously described (multiplicity of infection: 50 parasites per cell) for 4 h. After washing out the non-internalized parasites, the cells were incubated overnight in RPMI medium supplemented with 10% FCS at 37 °C and then maintained at 33 °C in a humidified atmosphere containing 5% CO2 as previously reported. Infected cells were maintained at 33 °C in the presence of 10% FCS. Infected cell-derived trypomastigotes started to burst into the culture medium at the 5th day post-infection. Trypomastigotes collected at day 5 or 6 post infection were used for the viability assays.
The density of exponentially proliferating epimastigotes for each assay was adjusted to 2.0 × 10^6 parasites mL^−1, transferred into 96-well plates (200 μL/well) and incubated with different concentrations of the compounds 5-F-2′-deoxyuridine, 5-F-uracil, 5-F-uridine or benznidazole. A combination of 60 μM rotenone and 0.5 μM antimycin (RA) was used as a positive control for proliferation inhibition (positive control), as previously described. […] The epimastigote proliferation was measured as previously reported, by reading the optical density (OD) at 620 nm every 24 h for 9 days (which collects readings through the exponential and stationary phases). […] The half-maximal inhibitory concentrations (IC50) were determined during the exponential growth phase (fifth day) by adjusting a sigmoidal dose-response function to experimentally obtained data using GraphPad Prism 8. The compounds were assessed in quadruplicate in each experiment, and the results correspond to four independent experiments.

The subject of assay [7] is L. mexicana Cas9^ΔNT1 promastigotes. The arrangement: method as in de Almeida Fiuza et al. [41]. The settings on record: starred values, ref de Almeida Fiuza et al. [41], cited from earlier work; for RF vs. Cas9 (resistance factor): EC50 Cas9^ΔNT1 relative to Cas9; for EC50: L. mexicana Cas9^ΔNT1 promastigotes, read-out: EC50 (µM) AVG ± SEM, L. mexicana Cas9^ΔNT1.
In assay [8] the test system is L. mexicana Cas9^ΔNT1+TcrNT2 promastigotes. The arrangement: method as in de Almeida Fiuza et al. [41]. The settings on record: starred values, ref de Almeida Fiuza et al. [41], cited from earlier work; for RF vs. ΔNT1 (resistance factor): Cas9^ΔNT1+TcrNT2 in comparison to Cas9^ΔNT1; for EC50: L. mexicana Cas9^ΔNT1+TcrNT2 promastigotes, read-out: EC50 (µM) AVG ± SEM, L. mexicana Cas9^ΔNT1+TcrNT2.

Assay [9] concerns L. mexicana Cas9 promastigotes. On the set-up: method as in de Almeida Fiuza et al. [41]. Particulars: starred values, ref de Almeida Fiuza et al. [41], read-out: EC50 (µM) AVG ± SEM, Cas9; cited from earlier work.

T1 sequence (Q4DHG0 entry or part of it): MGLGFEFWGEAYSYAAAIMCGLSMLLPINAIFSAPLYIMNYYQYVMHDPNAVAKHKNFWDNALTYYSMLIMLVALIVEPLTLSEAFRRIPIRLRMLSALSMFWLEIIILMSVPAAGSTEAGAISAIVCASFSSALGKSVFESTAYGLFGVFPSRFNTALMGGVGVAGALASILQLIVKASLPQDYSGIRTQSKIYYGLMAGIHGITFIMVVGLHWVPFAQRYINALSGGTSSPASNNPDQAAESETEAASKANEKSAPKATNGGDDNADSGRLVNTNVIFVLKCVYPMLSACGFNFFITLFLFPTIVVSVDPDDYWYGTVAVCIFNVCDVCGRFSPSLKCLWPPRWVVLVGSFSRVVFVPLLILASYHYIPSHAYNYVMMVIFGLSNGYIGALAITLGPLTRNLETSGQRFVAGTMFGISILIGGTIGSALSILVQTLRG

By Ki is commonly meant the equilibrium dissociation constant of an inhibitor or competing ligand from its target. Turning to `O=c1ccn([C@H]2C[C@H](O)[C@@H](CO)O2)c(=O)[nH]1` [2′-deoxyuridine], the Ki at TcrNT2 [1] is 1.11 ± 0.1 µM. Further, on TcrNT2 [2], the “ΔG° (Gibbs free energy of interaction)” value was -33.6 kJ/mol, the “δ(ΔG°) with respect to ΔG° of thymidine” value was -3.99 kJ/mol and the Ki worked out at 1.31 ± 0.002 µM.
Usually IC50 stands for the concentration that gives 50% inhibition. Take `O=c1[nH]cc(F)c(=O)[nH]1` [5-F-uracil]: the “EC50 (µM) AVG ± SEM, L. mexicana Cas9^ΔNT1” value in assay [3] is recorded as “poorly active”. In addition, the “EC50 (µM) AVG ± SEM, Cas9” value in assay [4] is listed as “poorly active”. The “EC50 (µM) AVG ± SEM, L. mexicana Cas9^ΔNT1+TcrNT2” value in assay [5] was “poorly active”. The IC50 in assay [6] came to 25.9 ± 0.01 µM.
The EC50 is the concentration giving half of the maximal effect. For the molecule `O=c1[nH]c(=O)n([C@@H]2O[C@H](CO)[C@@H](O)[C@H]2O)cc1F` [5-F-uridine], the EC50 in assay [3] (read-out: EC50 (µM) AVG ± SEM, L. mexicana Cas9^ΔNT1) was greater than 500 µM; in [4] (read-out: EC50 (µM) AVG ± SEM, Cas9), greater than 500 µM; in assay [5] (read-out: EC50 (µM) AVG ± SEM, L. mexicana Cas9^ΔNT1+TcrNT2) it was greater than 500 µM. Moreover, the IC50 in [6] was greater than 500 µM.
`Nc1ncnc2c1c(Cl)cn2[C@@H]1O[C@H](CO)[C@@H](O)[C@H]1O` [FH3169]: in [7], the “RF vs. Cas9 (resistance factor)” value was 8.43 and the EC50 is 2 ± 0.19 µM. In assay [8], the “RF vs. ΔNT1 (resistance factor)” value was 6.26 and the EC50 was 0.32 ± 0.05 µM. In addition, the EC50 in [9] is 0.24 ± 0.055 µM.
Turning to `Nc1ncnc2c1c(-c1ccc(Cl)c(F)c1)cn2[C@@H]1O[C@H](CO)[C@@H](O)[C@H]1O` [FH10714], the EC50 in assay [7], in [8] and in assay [9] was greater than 500 µM throughout.
As for `Nc1ncnc2c1c(-c1ccccc1)cn2[C@@H]1O[C@H](CO)[C@@H](O)[C@H]1O` [TH1004], in assay [7], the “RF vs. Cas9 (resistance factor)” value was 3.7 and the EC50 is 138 ± 10 µM. Further, in [8], the “RF vs. ΔNT1 (resistance factor)” value was 1.37 and the EC50 is 101 ± 0.5 µM. The EC50 in assay [9] was 37 ± 0.23 µM.
With `Nc1ncnc2c1c(-c1ccc(Cl)cc1)cn2[C@@H]1O[C@H](CO)[C@@H](O)[C@H]1O` [TH1012], in assay [7], the “RF vs. Cas9 (resistance factor)” value is given as 5.3 and the EC50 was 280 ± 18 µM. Moreover, in [8], the “RF vs. ΔNT1 (resistance factor)” value is reported as 2.90 and the EC50 was 96.6 ± 0.3 µM. Moreover, in [9], the EC50 was 52.5 ± 0.3 µM.
With `O=c1ccn([C@@H]2O[C@H](CO)[C@@H](O)[C@H]2O)c(=O)[nH]1` [Uridine], the “fold lower affinity than thymidine” value on TcrNT2 [1] (TcrNT2 expressed in T. b. brucei, ref [30]) is recorded as 300 fold. Further, at TcrNT2 [2], the “ΔG° (Gibbs free energy of interaction)” value was -21.5 kJ/mol, the “δ(ΔG°) with respect to ΔG° of thymidine” value was -16.1 kJ/mol and the Ki turned out to be 172 ± 8 µM. Also, the “δ(ΔG°) with respect to ΔG° of thymidine” value on TcrNT2 [2] (listed as uridine) was 16.1 kJ/mol. Also, at TcrNT2 [2] (pairwise comparison vs. 2′-deoxyuridine), the “δ(ΔG°), pairwise comparison with 2′-deoxyuridine” value was determined as 12.1 kJ/mol.
For `Nc1ccn([C@@H]2O[C@H](CO)[C@@H](O)[C@H]2O)c(=O)n1` [cytidine], the Ki on TcrNT2 [1] was 728 ± 71 µM.
